Our source for the inhibition, IC50 and Activity values is ChEMBL document CHEMBL3085630, “Thienopyrimidine bisphosphonate (ThPBP) inhibitors of the human farnesyl pyrophosphate synthase: optimization and characterization of the mode of inhibition” (J Med Chem, 2013).

Activity calls are given as the source filed them. The rule behind the calls is not given here.

In test [1] the target is T1, Farnesyl pyrophosphate synthase (Homo sapiens) (UniProt P14324).
T1 sequence (whole entry): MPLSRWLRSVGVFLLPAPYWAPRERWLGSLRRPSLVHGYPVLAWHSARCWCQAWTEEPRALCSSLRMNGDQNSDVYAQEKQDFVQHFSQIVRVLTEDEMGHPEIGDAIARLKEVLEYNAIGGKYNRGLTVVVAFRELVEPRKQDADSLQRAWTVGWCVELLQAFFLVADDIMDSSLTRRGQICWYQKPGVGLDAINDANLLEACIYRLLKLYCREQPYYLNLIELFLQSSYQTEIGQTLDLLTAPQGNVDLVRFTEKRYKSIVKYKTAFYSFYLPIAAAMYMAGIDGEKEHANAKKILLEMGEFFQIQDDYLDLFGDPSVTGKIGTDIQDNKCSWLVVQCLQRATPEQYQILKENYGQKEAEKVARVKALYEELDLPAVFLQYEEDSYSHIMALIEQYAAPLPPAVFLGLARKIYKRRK
The experiment in a line: Inhibition of human recombinant FPPS using GPP/[3H]IPP as substrate at 100 nM incubated for 10 mins prior to substrate addition measured after 8 mins by scintillation counting analysis.

The target of test [2] is T2, Farnesyl pyrophosphate synthase (Homo sapiens, UniProt P14324).
T2 sequence (P14324 whole entry): T1 sequence (whole entry)
The experiment in a line: Inhibition of human recombinant FPPS using GPP/[3H]IPP as substrate incubated for 10 mins prior to substrate addition by scintillation counting analysis.

Test [3] addresses T2, Farnesyl pyrophosphate synthase. The experiment in a line: Inhibition of human recombinant FPPS using GPP/[3H]IPP as substrate incubated for 10 mins prior to substrate addition measured after 8 mins by scintillation counting analysis.
Another test has as its system Hydroxyapatite. As to the kind of experiment: Binding affinity to bone mineral hydroxyapatite at 50 uM after 5 mins by NMR-spectroscopic analysis.

For `O=P(O)(O)C(Nc1ncnc2sc(-c3cccc4[nH]ncc34)cc12)P(=O)(O)O`, the inhibition in test [1] is below 20%. As to `O=P(O)(O)C(Nc1ncnc2sc(-c3ccc(C4CC4)cc3)cc12)P(=O)(O)O`, the concentration for half-maximal inhibition (IC50) was 115 nM in test [2] and 39 nM in test [3]. In the test with Hydroxyapatite, the outcome was Active. For the molecule `O=P(O)(O)C(Nc1ncnc2sc(-c3ccc(C4CC4(F)F)cc3)cc12)P(=O)(O)O` (centres undefined), the 50% inhibitory concentration (IC50) in test [2] was found to be 140 nM.

On to `O=P(O)(O)C(O)(Cc1cccnc1)P(=O)(O)O`, for which, in the test on Hydroxyapatite, the result was Active. Consider `COc1ccc(-c2cc3c(NC(P(=O)(O)O)P(=O)(O)O)ncnc3s2)cc1`, for which the IC50 in test [2] was 440 nM. As for `O=P(O)(O)C(Nc1ncnc2sc(-c3ccc(OC4CC4)cc3)cc12)P(=O)(O)O`, in the test on Hydroxyapatite, the result was Active.

Consider `O=P(O)(O)C(Nc1ncnc2sc(-c3ccc(C(F)(F)F)cc3)cc12)P(=O)(O)O`, for which, in the test on Hydroxyapatite, the result was Active. In addition, in test [1], the inhibition worked out at 73%. Take `Cc1noc(C)c1-c1cc2c(NC(P(=O)(O)O)P(=O)(O)O)ncnc2s1`: the inhibition in test [1] is below 20%. Still for that read-out and setting: for `O=P(O)(O)C(Nc1ncnc2sc(-c3cccc(C(F)(F)F)c3)cc12)P(=O)(O)O` the value was 30%; for `O=P(O)(O)C(Nc1ncnc2sc(-c3ccc4[nH]ncc4c3)cc12)P(=O)(O)O`, below 20%. Regarding `CC(C)Oc1ccc(-c2cc3c(NC(P(=O)(O)O)P(=O)(O)O)ncnc3s2)cc1`, the 50% inhibitory concentration (IC50) in test [3] was 200 nM.
